Measured values: PMC7558522, “Click-Free Synthesis of a Multivalent Tricyclic Peptide as a Molecular Transporter” (Pharmaceutics, 2020)
≈ marks a conversion by molar mass, not a printed value. Read-outs that look alike come from different tables or passages of the source. *1 amine or outer side, *2 acyl side, *3 side chain or, on linkers, in order; H or OH if unused. Where a SMILES comes first, the peptide text is derived from it. Bridges are numbered along the chain shown (N, C = ends). Roman numbers before positions name the chains, in order. Suc = O=C(CCC(=O)[*:2])[*:1]

How the values were obtained:
E. coli (ATCC 25922) = assay: microbe, parasite or virus in culture; format: cell-based, Escherichia coli
Method: (§1) The selected strains of bacteria, MRSA (Los Angeles County (LAC) clone), E. coli (ATCC 25922), Pseudomonas aeruginosa (ATCC 27883), and Klebsiella pneumoniae (ATCC BAA 1705) were cultured according to the guidelines of the Clinical Laboratory Standards Institute (CLSI) guidelines. MIC values were determined using microbroth dilution assay. Tricyclic peptide 20 was used to evaluate antibacterial activity in comparison to positive controls, such as Meropenem for Gram-negative bacteria and c[R4W4] for Gram-positive bacteria. Bacterial strains were inoculated into LB (5 mL) and shaken in an orbital shaker at 175 rpm overnight at 37 °C. The cultured suspension was immediately diluted to get turbidity of 0.5 McFarland (1.5 × 10^8 bacterial cell CFU/mL) using normal saline. The test compounds (tricyclic peptide 20, Meropenem, and c[R4W4]) were dissolved in 5% dimethyl sulfoxide (DMSO) to generate 256 µg/mL solutions. 200 µL of tricyclic peptide 20, and controls were added to the first column of the 96 well plates, and a twofold serial dilution was performed with the addition of 100 µL of bacterial culture media to the other wells. […] Bacterial solution (100 µL) was added to all the wells and incubated statically at 37 °C overnight. The minimum concentration at which bacterial growth was not visible to eyes were reported as MICs and experiments were performed in triplicate.

MRSA (LAC Clone) = assay: microbe, parasite or virus in culture; format: cell-based, Methicillin-resistant Staphylococcus aureus
Method: as §1

[1] = system: Klebsiella pneumoniae (ATCC BAA 1705); assay: microbe, parasite or virus in culture; format: cell-based
Method: as §1

[2] = system: Pseudomonas aeruginosa (ATCC 27883); assay: microbe, parasite or virus in culture; format: cell-based
Method: as §1

MDA-MB-231 cells = format: cell-based, Human
Method: Human breast cancer (MDA-MB-231) cell line was grown on 75 cm^2 cell culture flasks with Dulbecco’s modified eagle’s medium (DMEM) medium, supplemented with 10% fetal bovine serum (FBS), and 1% penicillin-streptomycin solution (10,000 units of penicillin and 10 mg of streptomycin in 0.9% NaCl) in a humidified atmosphere of 5% CO2, 95% air at 37 °C. CellTiter 96® Aqueous (Promega, Madison, WI, USA) one solution cell proliferation assay (MTS) was utilized to evaluate MDA-MB-231 cell viability. Cells were seeded into 96-well plate (10^4 cells/100 μL) in complete media and incubated overnight at 37 °C with 5% CO2. Different concentrations (0−300 μM) of the peptide solution (10 μL) were added to wells to make the final concentrations of the peptide (0−30 μM). The cells were incubated again (37 °C, 5% CO2) for 24 h, then MTS reagent (20 μL) was added to each well followed by incubation for 2 h under the same condition. The absorbance of the resulting solution was evaluated at 490 nm using a microplate reader to detect the live cells. Cells without peptide were considered as a control. DMSO (30% v/v) was used as a positive control. The compound was used in aqueous solution. All the tests were performed in triplicate.

[3] = system: MRSA, Klebsiella pneumoniae, Pseudomonas aeruginosa, and E. coli; format: cell-based; settings: range over the four strains, microbroth dilution
Method: as §1

| MIC (E. coli (ATCC 25922); Escherichia coli, ATCC25922, microbroth dilution, incubated overnight at 37 °C, growth not visible to eyes, performed in triplicate, read-out: MIC) | MIC (MRSA (LAC Clone); Staphylococcus aureus, MRSA, microbroth dilution, incubated overnight at 37 °C, growth not visible to eyes, performed in triplicate, read-out: MIC) | MIC ([1]; Klebsiella pneumoniae, BAA1705, microbroth dilution, incubated overnight at 37 °C, growth not visible to eyes, performed in triplicate, read-out: MIC) | MIC ([2]; Pseudomonas aeruginosa, ATCC27883, microbroth dilution, incubated overnight at 37 °C, growth not visible to eyes, performed in triplicate, read-out: MIC) | Structure (SMILES) | cell viability (MDA-MB-231 cells; 25 µM) | cell viability (MDA-MB-231 cells; 30 µM) | MIC (E. coli (ATCC 25922); ATCC 25922) | MIC (MRSA (LAC Clone); LAC Clone) | MIC ([1]; ATCC BAA 1705) | MIC ([2]; ATCC 27883) | MIC (range over MRSA, K. pneumoniae, P. aeruginosa, E. coli) [3] |
| --- | --- | --- | --- | --- | --- | --- | --- | --- | --- | --- | --- |
| 8 µg/mL (≈ 20.9 µM) | 4 µg/mL (≈ 10.4 µM) | 32 µg/mL (≈ 83.4 µM) | 1 µg/mL (≈ 2.61 µM) | C[C@@H](O)[C@H]1C(=O)N2C(C(=O)O)=C(S[C@@H]3CN[C@H](C(=O)N(C)C)C3)[C@H](C)[C@H]12 [Meropenem] | – | – | – | – | – | – | – |
| – | – | – | – | N=C(N)NCCC[C@@H]1NC(=O)[C@H](Cc2c[nH]c3ccccc23)NC(=O)[C@H](CCCNC(=N)N)NC(=O)[C@H](Cc2c[nH]c3ccccc23)NC(=O)[C@H](CCCCNC(=O)CCC(=O)NCCCC[C@@H]2NC(=O)[C@H](CCCNC(=N)N)NC(=O)[C@H](Cc3c[nH]c4ccccc34)NC(=O)[C@H](CCCNC(=N)N)NC(=O)[C@H](Cc3c[nH]c4ccccc34)NC(=O)[C@H](CCCNC(=N)N)NC(=O)[C@H](Cc3c[nH]c4ccccc34)NC(=O)[C@H](CCCNC(=N)N)NC(=O)[C@H](Cc3c[nH]c4ccccc34)NC2=O)NC(=O)[C@H](CCCNC(=N)N)NC(=O)[C@H](Cc2c[nH]c3ccccc23)NC(=O)[C@H](CCCNC(=N)N)NC(=O)[C@H](Cc2c[nH]c3ccccc23)NC(=O)[C@H](CCCCNC(=O)CCC(=O)NCCCC[C@@H]2NC(=O)[C@H](CCCNC(=N)N)NC(=O)[C@H](Cc3c[nH]c4ccccc34)NC(=O)[C@H](CCCNC(=N)N)NC(=O)[C@H](Cc3c[nH]c4ccccc34)NC(=O)[C@H](CCCNC(=N)N)NC(=O)[C@H](Cc3c[nH]c4ccccc34)NC(=O)[C@H](CCCNC(=N)N)NC(=O)[C@H](Cc3c[nH]c4ccccc34)NC2=O)NC1=O [Tricyclic peptide 20] (I: cyclo(KWRWRKWRWR) / II: cyclo(KWRWRWRWR) / III: cyclo(KWRWRWRWR); linker I:1-III:1, I:6-II:1 via Suc) | more than 97% | 92% | 64 µg/mL (≈ 13.4 µM) | 64 µg/mL (≈ 13.4 µM) | 128 µg/mL (≈ 26.7 µM) | 128 µg/mL (≈ 26.7 µM) | 64 to 128 µg/mL |
| – | – | – | – | N=C(N)NCCC[C@@H]1NC(=O)[C@H](CCCNC(=N)N)NC(=O)[C@H](CCCNC(=N)N)NC(=O)[C@H](Cc2c[nH]c3ccccc23)NC(=O)[C@H](Cc2c[nH]c3ccccc23)NC(=O)[C@H](Cc2c[nH]c3ccccc23)NC(=O)[C@H](Cc2c[nH]c3ccccc23)NC(=O)[C@H](CCCNC(=N)N)NC1=O [c[R4W4]] (cyclo(RRRRWWWW)) | – | – | 16 µg/mL (≈ 11.7 µM) | 4 µg/mL (≈ 2.92 µM) | 32 µg/mL (≈ 23.4 µM) | 64 µg/mL (≈ 46.7 µM) | – |
